Source: ChEMBL document CHEMBL4011590, “Structure-activity relationship studies on 3,5-dinitrophenyl tetrazoles as antitubercular agents” (Eur J Med Chem, 2017)
Converted amounts (≈) assume the structure as drawn.

Key:
[1] = tested on: Enterococcus sp.; assay: Antibacterial activity against Enterococcus sp. HK14365/08 after 24 hrs by broth microdilution method; assay type: functional; conditions: HK14365/08, 24 h
[2] = tested on: HaCaT; assay: Cytotoxicity against human HaCaT cells after 72 hrs by neutral red uptake assay; assay type: cell-based
[3] = tested on: Pseudomonas aeruginosa; assay: Antibacterial activity against Pseudomonas aeruginosa ATCC 9027 after 48 hrs by broth microdilution method; assay type: functional; conditions: ATCC 9027, 48 h
[4] = tested on: Candida albicans; assay: Antifungal activity against Candida albicans ATCC 44859 after 24 hrs by broth microdilution method; assay type: functional; conditions: ATCC 44859, 24 h
[5] = Selectivity index, ratio of IC50 for human HaCaT cells to MIC for Mycobacterium tuberculosis H37Rv CNCTC My 331/88; assay type: toxicity; conditions: read-out: Selectivity Index
[6] = tested on: Mycobacterium kansasii; assay: Antimycobacterial activity against Mycobacterium kansasii CNCTC My 235/80 after 21 days by micromethod; assay type: functional; conditions: CNCTC My 235/80, 504 h
[7] = tested on: Aspergillus fumigatus; assay: Antifungal activity against Aspergillus fumigatus 231 after 48 hrs by broth microdilution method; assay type: functional; conditions: Aspergillus fumigatus, 231, 48 h
[8] = tested on: Lichtheimia corymbifera; assay: Antifungal activity against Absidia corymbifera 272 after 24 hrs by broth microdilution method; assay type: functional; conditions: Lichtheimia corymbifera, 272, 24 h
[9] = tested on: Mycobacterium avium; assay: Antimycobacterial activity against Mycobacterium avium CNCTC My 330/80 after 21 days by micromethod; assay type: functional; conditions: CNCTC My 330/80, 504 h
[10] = tested on: Staphylococcus aureus; assay: Antibacterial activity against Staphylococcus aureus ATCC 6538 after 48 hrs by broth microdilution method; assay type: functional; conditions: ATCC 6538, 48 h
[11] = tested on: Mycobacterium tuberculosis; assay: Antimycobacterial activity against Mycobacterium tuberculosis H37Rv CNCTC My 331/88 after 21 days by micromethod; assay type: functional; conditions: H37Rv CNCTC My 331/88, 504 h
[12] = tested on: Mycobacterium kansasii; assay: Antimycobacterial activity against Mycobacterium kansasii isolate 6509/96 after 7 days by micromethod; assay type: functional; conditions: isolate 6509/96, 168 h
[13] = tested on: Mycobacterium kansasii; assay: Antimycobacterial activity against Mycobacterium kansasii isolate 6509/96 after 21 days by micromethod; assay type: functional; conditions: isolate 6509/96, 504 h
[14] = tested on: Staphylococcus aureus; assay: Antibacterial activity against methicillin-resistant Staphylococcus aureus HK5996/08 after 24 hrs by broth microdilution method; assay type: functional; conditions: HK5996/08, 24 h
[15] = tested on: Trichophyton mentagrophytes; assay: Antifungal activity against Trichophyton mentagrophytes 445 after 72 hrs by broth microdilution method; assay type: functional; conditions: Trichophyton mentagrophytes, 445, 72 h
[16] = tested on: Klebsiella pneumoniae; assay: Antibacterial activity against Klebsiella pneumoniae HK11750/08 after 24 hrs by broth microdilution method; assay type: functional; conditions: HK11750/08, 24 h
[17] = tested on: Trichosporon asahii; assay: Antifungal activity against Trichosporon asahii 1188 after 24 hrs by broth microdilution method; assay type: functional; conditions: Trichosporon asahii, 1188, 24 h
[18] = tested on: Mycobacterium tuberculosis; assay: Antimycobacterial activity against Mycobacterium tuberculosis H37Rv CNCTC My 331/88 after 14 days by micromethod; assay type: functional; conditions: H37Rv CNCTC My 331/88, 336 h
[19] = tested on: Enterococcus sp.; assay: Antibacterial activity against Enterococcus sp. HK14365/08 after 48 hrs by broth microdilution method; assay type: functional; conditions: HK14365/08, 48 h
[20] = tested on: Mycobacterium avium; assay: Antimycobacterial activity against Mycobacterium avium CNCTC My 330/80 after 14 days by micromethod; assay type: functional; conditions: CNCTC My 330/80, 336 h
[21] = tested on: Candida albicans; assay: Antifungal activity against Candida albicans ATCC 44859 after 48 hrs by broth microdilution method; assay type: functional; conditions: ATCC 44859, 48 h
[22] = tested on: Lichtheimia corymbifera; assay: Antifungal activity against Absidia corymbifera 272 after 48 hrs by broth microdilution method; assay type: functional; conditions: Lichtheimia corymbifera, 272, 48 h
[23] = Selectivity index, ratio of IC50 for CHOK1 cells to MIC for Mycobacterium tuberculosis H37Rv CNCTC My 331/88; assay type: toxicity; conditions: hamster, CHO-K1 cells; read-out: Selectivity Index
[24] = tested on: Staphylococcus aureus; assay: Antibacterial activity against Staphylococcus aureus ATCC 6538 after 24 hrs by broth microdilution method; assay type: functional; conditions: ATCC 6538, 24 h
[25] = tested on: Escherichia coli; assay: Antibacterial activity against Escherichia coli ATCC 8739 after 48 hrs by broth microdilution method; assay type: functional; conditions: ATCC 8739, 48 h
[26] = tested on: Trichosporon asahii; assay: Antifungal activity against Trichosporon asahii 1188 after 48 hrs by broth microdilution method; assay type: functional; conditions: Trichosporon asahii, 1188, 48 h
[27] = tested on: Staphylococcus aureus; assay: Antibacterial activity against methicillin-resistant Staphylococcus aureus HK5996/08 after 48 hrs by broth microdilution method; assay type: functional; conditions: HK5996/08, 48 h
[28] = tested on: Escherichia coli; assay: Antibacterial activity against Escherichia coli ATCC 8739 after 24 hrs by broth microdilution method; assay type: functional; conditions: ATCC 8739, 24 h
[29] = tested on: Mycobacterium kansasii; assay: Antimycobacterial activity against Mycobacterium kansasii isolate 6509/96 after 14 days by micromethod; assay type: functional; conditions: isolate 6509/96, 336 h
[30] = Selectivity index, ratio of IC50 for mouse 3T3 cells to MIC for Mycobacterium tuberculosis H37Rv CNCTC My 331/88; assay type: toxicity; conditions: read-out: Selectivity Index
[31] = tested on: Klebsiella pneumoniae; assay: Antibacterial activity against extended spectrum beta-lactamase producing Klebsiella pneumoniae HK14368/08 after 48 hrs by broth microdilution method; assay type: functional; conditions: HK14368/08, 48 h
[32] = tested on: CHO-K1; assay: Cytotoxicity against CHOK1 cells after 24 hrs by MTT assay; assay type: cell-based; conditions: Cricetulus griseus, CHO-K1, 24 h
[33] = tested on: Mycobacterium kansasii; assay: Antimycobacterial activity against Mycobacterium kansasii CNCTC My 235/80 after 7 days by micromethod; assay type: functional; conditions: CNCTC My 235/80, 168 h
[34] = tested on: Aspergillus fumigatus; assay: Antifungal activity against Aspergillus fumigatus 231 after 24 hrs by broth microdilution method; assay type: functional; conditions: Aspergillus fumigatus, 231, 24 h
[35] = tested on: Nakaseomyces glabratus; assay: Antifungal activity against Candida glabrata 20/I after 24 hrs by broth microdilution method; assay type: functional
[36] = tested on: Candida tropicalis; assay: Antifungal activity against Candida tropicalis 156 after 24 hrs by broth microdilution method; assay type: functional; conditions: Candida tropicalis, 156, 24 h
[37] = tested on: Pseudomonas aeruginosa; assay: Antibacterial activity against Pseudomonas aeruginosa ATCC 9027 after 24 hrs by broth microdilution method; assay type: functional; conditions: ATCC 9027, 24 h
[38] = tested on: Trichophyton mentagrophytes; assay: Antifungal activity against Trichophyton mentagrophytes 445 after 120 hrs by broth microdilution method; assay type: functional; conditions: Trichophyton mentagrophytes, 445, 120 h
[39] = tested on: Klebsiella pneumoniae; assay: Antibacterial activity against extended spectrum beta-lactamase producing Klebsiella pneumoniae HK14368/08 after 24 hrs by broth microdilution method; assay type: functional; conditions: HK14368/08, 24 h
[40] = tested on: Nakaseomyces glabratus; assay: Antifungal activity against Candida glabrata 20/I after 48 hrs by broth microdilution method; assay type: functional
[41] = tested on: Klebsiella pneumoniae; assay: Antibacterial activity against Klebsiella pneumoniae HK11750/08 after 48 hrs by broth microdilution method; assay type: functional; conditions: HK11750/08, 48 h
[42] = tested on: Pichia kudriavzevii; assay: Antifungal activity against Candida krusei E28 after 24 hrs by broth microdilution method; assay type: functional; conditions: E28, 24 h
[43] = tested on: Candida tropicalis; assay: Antifungal activity against Candida tropicalis 156 after 48 hrs by broth microdilution method; assay type: functional; conditions: Candida tropicalis, 156, 48 h
[44] = tested on: Mycobacterium kansasii; assay: Antimycobacterial activity against Mycobacterium kansasii CNCTC My 235/80 after 14 days by micromethod; assay type: functional; conditions: CNCTC My 235/80, 336 h
[45] = tested on: Pichia kudriavzevii; assay: Antifungal activity against Candida krusei E28 after 48 hrs by broth microdilution method; assay type: functional; conditions: E28, 48 h

For `COc1ccc(Cn2nnc(-c3cc([N+](=O)[O-])cc([N+](=O)[O-])c3)n2)cc1`, the MIC [1] was > 500 µM, the IC50 [2] was > 100 µM and the MIC [3] was > 500 µM. The MIC [4] was > 500 µM, the selectivity ratio [5] was > 1000 and the MIC99 [6] was 0.25 µM (≈ 0.0891 µg/mL). The MIC [7] was > 500 µM, the MIC [8] was > 500 µM and the MIC99 [9] was 8 µM (≈ 2.85 µg/mL). The MIC [10] was > 250 µM, the MIC99 [11] was 0.03 µM (≈ 0.0107 µg/mL) and the MIC99 [12] was 0.06 µM (≈ 0.0214 µg/mL). For the same compound, the MIC99 [13] was 0.125 µM (≈ 0.0445 µg/mL), the MIC [14] was 250 µM (≈ 89.1 µg/mL) and the MIC [15] was > 500 µM. For the same compound, the MIC [16] was > 500 µM, the MIC [17] was > 500 µM and the MIC99 [18] was 0.03 µM (≈ 0.0107 µg/mL). The MIC [19] was > 500 µM, the MIC99 [20] was 4 µM (≈ 1.43 µg/mL) and the MIC [21] was > 500 µM. For the same compound, the MIC [22] was > 500 µM, the selectivity ratio [23] was > 1000 and the MIC [24] was > 250 µM. For the same compound, the MIC [25] was > 500 µM, the MIC [26] was > 500 µM and the MIC [27] was 250 µM (≈ 89.1 µg/mL). The MIC [28] was > 500 µM, the MIC99 [29] was 0.06 µM (≈ 0.0214 µg/mL) and the selectivity ratio [30] was > 1000. The MIC [31] was > 500 µM, the IC50 [32] was 96 µM and the MIC99 [33] was 0.125 µM (≈ 0.0445 µg/mL). The MIC [34] was > 500 µM, the MIC [35] was > 500 µM and the MIC [36] was > 500 µM. The MIC [37] was > 500 µM, the MIC [38] was > 500 µM and the MIC [39] was > 500 µM. For the same compound, the MIC [40] was > 500 µM, the MIC [41] was > 500 µM and the MIC [42] was > 500 µM. For the same compound, the MIC [43] was > 500 µM, the MIC99 [44] was 0.125 µM (≈ 0.0445 µg/mL) and the MIC [45] was > 500 µM.
